Test results published in patent US11612592B2, “Liquid formulations containing picosulfate and magnesium citrate” (FERRING B.V., priority 2015, dated 2023).
Entries after “also recorded” stand apart in the source; their conditions may differ.

Legend:
[1] = Freeze-thaw cycle accelerated method for predicting precipitation (height of precipitate in tube); format: physicochemical; details: for Effectiveness as precipitation inhibitor compared with malic acid: 31 mmol in 150 mL (210 mM); for Effectiveness to inhibit precipitation: 63 mmol in 150 mL (420 mM), five freeze-thaw cycles
Method: A picosulfate formulation containing sodium picosulfate (10 mg), magnesium oxide (3.5 g), citric acid (12 g), and KHCO3 (0.65 g) and, optionally, a precipitation inhibitor (or combination of inhibitors) to be tested, dissolved in water (150 mL) is prepared. The pH is adjusted to the range 4.7-5.1 using aq. NaOH and aq. HCl solutions. The solution is filtered through a 0.22 μm PTFE filter under vacuum.
Two portions of 10 mL of the formulation test solution are placed in tapered, graduated, centrifuge tubes (15 mL) and subjected to five freeze-thaw cycles in which the solutions are frozen at −20° C. for at least 12 h and then thawed at 20-25° C. for 8 h. At the end of each cycle, the tube is inspected for precipitation at the bottom of the tube. If precipitation is present, the amount of precipitate is quantitated by measuring the height (in mm) of the precipitate in the centrifuge tube using a ruler.
The amount of precipitate (if any) is quantitated by measuring the height (in mm) of the precipitate in the centrifuge tube using a ruler at the end of each freeze thaw cycle.
If a polymer is included in the formulation, the polymer (75-150 mg) is dissolved in water (150 mL) until a clear solution (containing the polymer at a concentration of […]) is formed. A sachet of PREPOPIK® sodium picosulfate/magnesium citrate granules (containing sodium picosulfate (10 mg), magnesium oxide (3.5 g), citric acid (12 g), KHCO3 (0.65 g), Na-saccharin and orange flavoring) is added. A carboxylic acid (31-63 mmol) is added, and the pH is adjusted to the range 4.7-5.1 using aq. NaOH and aq. HCl solutions. The solution is filtered through a 0.22 μm PTFE filter under vacuum.

[2] = Time to precipitation on storage under ambient conditions (20-25 °C); format: physicochemical; details: Table 3 data; 0.42 M
Method: A liquid formulation containing sodium picosulfate and magnesium citrate was prepared by dissolving a sachet of commercially available PREPOPIK® containing sodium picosulfate (10 mg), magnesium oxide (3.5 g), citric acid (12 g), KHCO3 (0.65 g), and orange or berry flavoring in water (150 mL). The solution is stored under ambient conditions and observed periodically until precipitation from the solution is noted.
A liquid formulation containing sodium picosulfate and magnesium citrate stabilized with malic acid was prepared using the ingredients listed in Table 1. The solution is stored under ambient conditions and observed periodically for precipitation from the solution. No precipitation is observed within 340 days.
As a reference, commercially available sodium picosulfate/magnesium oxide/citric acid (PICOSOLUTION™, Pharmbio Co., Ltd.) is also stored under ambient conditions and observed periodically for precipitation from the solution. No precipitation is observed within 645 days.
The remainder of the formulation test solution may be stored at ambient temperature (e.g., 20-25° C.) to determine the stability under non-accelerated conditions.
Samples of each of the solutions are also stored at ambient temperature (20-25° C.) and monitored for the appearance of precipitation. […]

SMILES | Effectiveness as precipitation inhibitor compared with malic acid [1] | Effectiveness to inhibit precipitation [1] | Concentration of malic acid needed for prolonged stability [2] [mmol per 150 mL]
O=C(O)C(O)C(O)C(=O)O (stereo not drawn) [tartaric acid] | of comparable effectiveness | very effective; also recorded: effective to inhibit precipitation | –
O=C(O)CC(O)C(=O)O (stereo not drawn) [malic acid] | – | very effective; also recorded: effective to inhibit precipitation | ≥ 63
O=C(O)CC(=O)O [malonic acid] | more effective as a precipitation inhibitor than malic acid | very effective; also recorded: effective to inhibit precipitation | –
